Test results as given in the supplement of paper PMC11208160.

experiment: recombinant UMI read abundance after kanamycin selection (control-corrected) (log10(CPM+1)); higher = more efficient recombination; extreme values may be limits of the assay; sequences stand for … in AGTGCAGAGAAAATCGGCCAGTTTTCTCTGCCTGCAGTCCGCATGCCGTGGGACCCCTTGGGTTCTAACCTGTTGCCTAGATTTATGCAGCGGACTGCCTTTCTCCCAAAGTGATAAACCGG…AGGTTGGTTTCACT; site = the 11-nt donor
Method in brief: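 Each donor and donor-binding-loop pair was tracked by a 12-nt UMI on a plasmid carrying a promoterless kanamycin gene. With a second plasmid supplying a fixed target and T7-inducible IS621 bridge recombinase, the pool was plated in Escherichia coli on IPTG (0.07 mM) plus kanamycin or unselected. Sequencing of recombinant UMIs across the donor–target junction gave counts expressed as log10(CPM+1) after replicate averaging and control-derived scaling.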
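Further: IS621 bridge recombinase in Escherichia coli cells against a fixed T5 target plasmid.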

Point of comparison: “TGTTCCTCATGGACCGGTTTTCCCGGTAATCCGTATTTGTA (site TGTTCCTCTTA)”, “recombinant UMI read abundance (log10)” value 1.06. Against it:
- TGTGCAGCATGGACCGGTTTTCCCGGTAATCCGTATTTGGT (site TGTGCAGCTAC) — lower, 0.0104
- TGTGCGTCATGGACCGGTTTTCCCGGTAATCCGTATTTGGT (site TGTGCGTCTAC) — lower, 0.348
- TGTGGAGCATGGACCGGTTTTCCCGGTAATCCGTATTTGGC (site TGTGGAGCTGC) — higher, 1.6
- TGTGGTACATGGACCGGTTTTCCCGGTAATCCGTATTTGGC (site TGTGGTACTGC) — lower, 0.698
- TGTGTAACATGGACCGGTTTTCCCGGTAATCCGTATTTGGG (site TGTGTAACTCC) — lower, 0.0344
- TGTGTATCATGGACCGGTTTTCCCGGTAATCCGTATTTGAT (site TGTGTATCTAT) — lower, 0.398
- TGTTATACATGGACCGGTTTTCCCGGTAATCCGTATTTGCA (site TGTTATACTTG) — higher, 1.64
- TGTTCAGCATGGACCGGTTTTCCCGGTAATCCGTATTTGTA (site TGTTCAGCTTA) — lower, 0.141
- TGTTCCACATGGACCGGTTTTCCCGGTAATCCGTATTTGTA (site TGTTCCACTTA) — lower, 0.225
- TGTTCCACATGGACCGGTTTTCCCGGTAATCCGTATTTGTA (site TGTTCCCCTTA) — lower, 0.00983
- TGTTCCACATGGACCGGTTTTCCCGGTAATCCGTATTTGTA (site TGTTCCGCTTA) — lower, 0.0123
- TGTTCCACATGGACCGGTTTTCCCGGTAATCCGTATTTGTA (site TGTTCCTCTTA) — lower, 0.0149
- TGTTCCGCATGGACCGGTTTTCCCGGTAATCCGTATTTGGC (site TGTTCCGCTGC) — lower, 0.484
- TGTTCCTCATGGACCGGTTTTCCCGGTAATCCGTATTTGTA (site TGTTCCACTTA) — lower, 0.0142
- TGTTCCTCATGGACCGGTTTTCCCGGTAATCCGTATTTGTA (site TGTTCCCCTTA) — lower, 0.00558
- TGTTCCTCATGGACCGGTTTTCCCGGTAATCCGTATTTGTA (site TGTTCCGCTTA) — lower, 0
- TGTTCGCCATGGACCGGTTTTCCCGGTAATCCGTATTTGTA (site TGTTCACCTTA) — lower, 0
- TGTTCGCCATGGACCGGTTTTCCCGGTAATCCGTATTTGTA (site TGTTCCCCTTA) — lower, 0.0392
- TGTTCGCCATGGACCGGTTTTCCCGGTAATCCGTATTTGTA (site TGTTCGCCTTA) — lower, 0.0127
- TGTTCGCCATGGACCGGTTTTCCCGGTAATCCGTATTTGTA (site TGTTCTCCTTA) — lower, 0
- TGTTTCCCATGGACCGGTTTTCCCGGTAATCCGTATTTGTA (site TGTTACCCTTA) — lower, 0.139
- TGTTTCCCATGGACCGGTTTTCCCGGTAATCCGTATTTGTA (site TGTTCCCCTTA) — lower, 0.0148
- TGTTTCCCATGGACCGGTTTTCCCGGTAATCCGTATTTGTA (site TGTTGCCCTTA) — lower, 0.0291
- TGTTTCCCATGGACCGGTTTTCCCGGTAATCCGTATTTGTA (site TGTTTCCCTTA) — lower, 0.152
- TGTTTGGCATGGACCGGTTTTCCCGGTAATCCGTATTTGCT (site AGTTTGGCTAG) — lower, 0
- TGTTTGGCATGGACCGGTTTTCCCGGTAATCCGTATTTGCT (site CGTTTGGCTAG) — lower, 0.00328
- TGTTTGGCATGGACCGGTTTTCCCGGTAATCCGTATTTGCT (site GGTTTGGCTAG) — lower, 0.0409
- TGTTTGGCATGGACCGGTTTTCCCGGTAATCCGTATTTGCT (site TGTTTGGCTAG) — lower, 0
- TTAATTTCATGGACCGGTTTTCCCGGTAATCCGTATTTGAA (site TTAATTTCTTT) — lower, 0
- TTACCTGCATGGACCGGTTTTCCCGGTAATCCGTATTTGTG (site TTAACTGCTCA) — lower, 0.013
- TTACCTGCATGGACCGGTTTTCCCGGTAATCCGTATTTGTG (site TTACCTGCTCA) — lower, 0.0157
- TTACCTGCATGGACCGGTTTTCCCGGTAATCCGTATTTGTG (site TTAGCTGCTCA) — lower, 0.00404
- TTACCTGCATGGACCGGTTTTCCCGGTAATCCGTATTTGTG (site TTATCTGCTCA) — lower, 0.00944
- TTACGTCCATGGACCGGTTTTCCCGGTAATCCGTATTTGGT (site TTACGTCCTAC) — lower, 0.02
- TTACTGACATGGACCGGTTTTCCCGGTAATCCGTATTTGCC (site GGTTATCCTTC) — lower, 0.00491
- TTAGAGACATGGACCGGTTTTCCCGGTAATCCGTATTTGCG (site TAAGAGACTCG) — within 0.2 log units, 0.923
- TTAGAGACATGGACCGGTTTTCCCGGTAATCCGTATTTGCG (site TCAGAGACTCG) — within 0.2 log units, 1.03
- TTAGAGACATGGACCGGTTTTCCCGGTAATCCGTATTTGCG (site TGAGAGACTCG) — lower, 0.02
- TTAGAGACATGGACCGGTTTTCCCGGTAATCCGTATTTGCG (site TTAGAGACTCG) — higher, 2.16
- TTAGATGCATGGACCGGTTTTCCCGGTAATCCGTATTTGCC (site TTAGATGCTGG) — higher, 1.9
- TTAGCAGCATGGACCGGTTTTCCCGGTAATCCGTATTTGCC (site TTAGCAGCTGG) — higher, 2.61
- TTAGCAGCATGGACCGGTTTTCCCGGTAATCCGTATTTGTG (site TTAGCAGCTCA) — lower, 0.707
- TTAGCAGCATGGACCGGTTTTCCCGGTAATCCGTATTTGTG (site TTAGCCGCTCA) — lower, 0.0121
- TTAGCAGCATGGACCGGTTTTCCCGGTAATCCGTATTTGTG (site TTAGCGGCTCA) — lower, 0.0104
- TTAGCAGCATGGACCGGTTTTCCCGGTAATCCGTATTTGTG (site TTAGCTGCTCA) — lower, 0.00315
- TTAGCGGCATGGACCGGTTTTCCCGGTAATCCGTATTTGCT (site TTAGCGGCTAG) — higher, 1.71
- TTAGCGGCATGGACCGGTTTTCCCGGTAATCCGTATTTGCT (site TTCGCGGCTAG) — lower, 0
- TTAGCGGCATGGACCGGTTTTCCCGGTAATCCGTATTTGCT (site TTGGCGGCTAG) — lower, 0
- TTAGCGGCATGGACCGGTTTTCCCGGTAATCCGTATTTGCT (site TTTGCGGCTAG) — lower, 0
- TTAGCTGCATGGACCGGTTTTCCCGGTAATCCGTATTTGGG (site TTAGCTGCTCA) — lower, 0
- TTAGCTGCATGGACCGGTTTTCCCGGTAATCCGTATTTGGG (site TTAGCTGCTCC) — lower, 0.0113
- TTAGCTGCATGGACCGGTTTTCCCGGTAATCCGTATTTGGG (site TTAGCTGCTCG) — lower, 0.0143
- TTAGCTGCATGGACCGGTTTTCCCGGTAATCCGTATTTGGG (site TTAGCTGCTCT) — lower, 0
- TTAGCTGCATGGACCGGTTTTCCCGGTAATCCGTATTTGTG (site ATAGCTGCTCA) — lower, 0.183
- TTAGCTGCATGGACCGGTTTTCCCGGTAATCCGTATTTGTG (site CTAGCTGCTCA) — lower, 0.221
- TTAGCTGCATGGACCGGTTTTCCCGGTAATCCGTATTTGTG (site GTAGCTGCTCA) — lower, 0.0161
- TTAGCTGCATGGACCGGTTTTCCCGGTAATCCGTATTTGTG (site TAAGCTGCTCA) — lower, 0.00653
- TTAGCTGCATGGACCGGTTTTCCCGGTAATCCGTATTTGTG (site TCAGCTGCTCA) — lower, 0.0262
- TTAGCTGCATGGACCGGTTTTCCCGGTAATCCGTATTTGTG (site TGAGCTGCTCA) — lower, 0.0117
- TTAGCTGCATGGACCGGTTTTCCCGGTAATCCGTATTTGTG (site TTAACTGCTCA) — lower, 0.0107
- TTAGCTGCATGGACCGGTTTTCCCGGTAATCCGTATTTGTG (site TTACCTGCTCA) — lower, 0.00862
- TTAGCTGCATGGACCGGTTTTCCCGGTAATCCGTATTTGTG (site TTAGATGCTCA) — lower, 0.0477
- TTAGCTGCATGGACCGGTTTTCCCGGTAATCCGTATTTGTG (site TTAGCAGCTCA) — lower, 0.00587
- TTAGCTGCATGGACCGGTTTTCCCGGTAATCCGTATTTGTG (site TTAGCCGCTCA) — lower, 0
- TTAGCTGCATGGACCGGTTTTCCCGGTAATCCGTATTTGTG (site TTAGCGGCTCA) — lower, 0.00865
- TTAGCTGCATGGACCGGTTTTCCCGGTAATCCGTATTTGTG (site TTAGCTACTCA) — lower, 0.0282
- TTAGCTGCATGGACCGGTTTTCCCGGTAATCCGTATTTGTG (site TTAGCTCCTCA) — lower, 0.0123
- TTAGCTGCATGGACCGGTTTTCCCGGTAATCCGTATTTGTG (site TTAGCTGCTAA) — lower, 0.0166
- TTAGCTGCATGGACCGGTTTTCCCGGTAATCCGTATTTGTG (site TTAGCTGCTCA) — lower, 0.543
- TTAGCTGCATGGACCGGTTTTCCCGGTAATCCGTATTTGTG (site TTAGCTGCTCC) — lower, 0.0667
- TTAGCTGCATGGACCGGTTTTCCCGGTAATCCGTATTTGTG (site TTAGCTGCTCG) — lower, 0.0153
- TTAGCTGCATGGACCGGTTTTCCCGGTAATCCGTATTTGTG (site TTAGCTGCTCT) — lower, 0.162
- TTAGCTGCATGGACCGGTTTTCCCGGTAATCCGTATTTGTG (site TTAGCTGCTGA) — lower, 0.631
- TTAGCTGCATGGACCGGTTTTCCCGGTAATCCGTATTTGTG (site TTAGCTGCTTA) — lower, 0.192
